Reference: ChEMBL document CHEMBL1909046, “DrugMatrix in vitro pharmacology data”

What was measured:
[1] = biological target: Sodium-dependent noradrenaline transporter (Homo sapiens, UniProt P23975); assay: DRUGMATRIX: Norepinephrine Transporter radioligand binding (ligand: [125I] RTI-55); assay type: cell membranes, MDCK, Membrane; conditions: mdck; Not Active = under 50% inhibition at 10 µM
[2] = biological target: Carbonic anhydrase 2 (Homo sapiens, UniProt P00918); assay: DRUGMATRIX: Carbonic Anhydrase II enzyme inhibition (substrate: 4-Nitrophenyl acetate (4-NPA)); assay type: tissue-based, Erythrocyte; conditions: erythrocyte; Not Active = under 50% inhibition at 10 µM
[3] = DRUGMATRIX: Imidazoline I2, Central radioligand binding (ligand: [3H] Idazoxan); assay type: cell membranes, Rattus norvegicus, Wistar, Cerebral cortex, Membrane; conditions: Not Active = under 50% inhibition at 10 µM
[4] = biological target: T1, Interstitial collagenase (Homo sapiens, UniProt P03956); assay: biochemical; assay type: tissue-based, Rheumatoid synovial fibroblasts;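 further: MMP-1 enzyme inhibition assay using a peptide substrate; in other assays of this panel Not Active means under 50% inhibition at 10 µM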
T1 sequence (P03956 whole entry): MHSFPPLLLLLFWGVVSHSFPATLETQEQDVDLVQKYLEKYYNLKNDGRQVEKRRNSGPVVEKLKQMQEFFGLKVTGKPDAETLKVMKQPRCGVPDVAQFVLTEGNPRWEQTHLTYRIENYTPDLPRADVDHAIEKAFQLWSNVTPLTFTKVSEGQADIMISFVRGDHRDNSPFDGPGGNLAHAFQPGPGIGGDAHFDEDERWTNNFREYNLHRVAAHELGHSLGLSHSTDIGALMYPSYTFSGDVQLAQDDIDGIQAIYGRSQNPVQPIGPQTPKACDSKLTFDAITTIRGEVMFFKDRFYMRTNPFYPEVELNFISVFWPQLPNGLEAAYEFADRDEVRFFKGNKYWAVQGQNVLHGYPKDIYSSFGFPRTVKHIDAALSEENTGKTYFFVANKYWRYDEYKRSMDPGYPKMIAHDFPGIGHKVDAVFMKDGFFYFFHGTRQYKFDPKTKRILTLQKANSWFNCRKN

[5] = biological target: Mitogen-activated protein kinase 3 (Homo sapiens, UniProt P27361); assay: DRUGMATRIX: Protein Serine/Threonine Kinase, ERK1 enzyme inhibition (substrate: Myelin Basic Protein); set-up: species or system Escherichia coli; conditions: Not Active = under 50% inhibition at 10 µM
Sequence of Mitogen-activated protein kinase 3 (P27361 whole entry): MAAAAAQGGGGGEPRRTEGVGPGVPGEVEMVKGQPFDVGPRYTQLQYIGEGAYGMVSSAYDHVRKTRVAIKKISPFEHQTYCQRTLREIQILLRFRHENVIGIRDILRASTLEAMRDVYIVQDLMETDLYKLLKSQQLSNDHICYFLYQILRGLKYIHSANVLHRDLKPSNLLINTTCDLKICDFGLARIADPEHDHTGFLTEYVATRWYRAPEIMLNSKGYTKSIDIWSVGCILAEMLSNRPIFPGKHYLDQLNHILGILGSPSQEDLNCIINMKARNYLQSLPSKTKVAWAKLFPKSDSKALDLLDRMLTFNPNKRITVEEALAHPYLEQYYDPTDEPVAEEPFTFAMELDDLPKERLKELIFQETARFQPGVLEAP

[6] = biological target: Mitogen-activated protein kinase 1 (Homo sapiens, UniProt P28482); assay: DRUGMATRIX: Protein Serine/Threonine Kinase, ERK2 enzyme inhibition (substrate: Myelin Basic Protein); set-up: species or system Escherichia coli; conditions: Not Active = under 50% inhibition at 10 µM
Sequence of Mitogen-activated protein kinase 1 (P28482 whole entry): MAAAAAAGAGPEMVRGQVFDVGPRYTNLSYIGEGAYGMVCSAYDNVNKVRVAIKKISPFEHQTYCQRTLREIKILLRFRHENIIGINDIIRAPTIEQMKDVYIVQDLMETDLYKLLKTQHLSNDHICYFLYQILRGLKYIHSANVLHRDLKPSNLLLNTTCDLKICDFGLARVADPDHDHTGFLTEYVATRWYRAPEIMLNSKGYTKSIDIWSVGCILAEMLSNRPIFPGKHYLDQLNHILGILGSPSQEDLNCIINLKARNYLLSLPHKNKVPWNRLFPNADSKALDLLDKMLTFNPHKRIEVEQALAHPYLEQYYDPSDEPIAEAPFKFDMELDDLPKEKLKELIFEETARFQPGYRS

[7] = biological target: T2, 5-hydroxytryptamine receptor 1A (Rattus norvegicus, UniProt P19327); assay type: cell membranes, Membrane; conditions: cho-k1; further: in other assays of this panel Not Active means under 50% inhibition at 10 µM
T2 sequence (P19327 whole entry): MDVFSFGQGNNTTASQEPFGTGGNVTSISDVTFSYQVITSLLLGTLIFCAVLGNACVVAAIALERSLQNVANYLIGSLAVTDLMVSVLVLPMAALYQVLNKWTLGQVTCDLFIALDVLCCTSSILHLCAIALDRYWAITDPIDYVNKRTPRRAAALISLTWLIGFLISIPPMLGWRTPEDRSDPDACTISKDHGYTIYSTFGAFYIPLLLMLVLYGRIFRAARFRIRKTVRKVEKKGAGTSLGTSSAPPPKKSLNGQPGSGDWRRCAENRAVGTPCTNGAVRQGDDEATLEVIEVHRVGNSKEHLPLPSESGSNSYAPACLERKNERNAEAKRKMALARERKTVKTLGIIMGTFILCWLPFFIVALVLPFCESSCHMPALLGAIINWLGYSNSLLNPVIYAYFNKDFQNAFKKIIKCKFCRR

[8] = biological target: T3, Estrogen receptor (Homo sapiens, UniProt P03372); conditions: sf9; further: in other assays of this panel Not Active means under 50% inhibition at 10 µM
T3 sequence (P03372 whole entry): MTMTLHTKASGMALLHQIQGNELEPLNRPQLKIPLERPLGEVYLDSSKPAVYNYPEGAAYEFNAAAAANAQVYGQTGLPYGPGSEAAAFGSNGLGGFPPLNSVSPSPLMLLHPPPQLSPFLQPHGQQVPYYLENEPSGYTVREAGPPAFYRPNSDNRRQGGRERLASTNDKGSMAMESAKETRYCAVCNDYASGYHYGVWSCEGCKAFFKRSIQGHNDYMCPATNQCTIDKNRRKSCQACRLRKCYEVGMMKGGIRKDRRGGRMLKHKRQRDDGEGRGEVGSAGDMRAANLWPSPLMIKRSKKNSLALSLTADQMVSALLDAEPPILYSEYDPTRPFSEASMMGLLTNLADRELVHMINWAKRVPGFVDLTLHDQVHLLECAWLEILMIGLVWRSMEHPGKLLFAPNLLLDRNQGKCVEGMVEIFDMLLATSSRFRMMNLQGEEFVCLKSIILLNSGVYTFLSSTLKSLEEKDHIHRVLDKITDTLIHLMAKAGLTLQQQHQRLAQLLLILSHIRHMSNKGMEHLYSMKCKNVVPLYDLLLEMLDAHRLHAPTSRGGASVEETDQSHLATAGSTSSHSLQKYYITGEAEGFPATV

Sequence of Sodium-dependent noradrenaline transporter (P23975 whole entry): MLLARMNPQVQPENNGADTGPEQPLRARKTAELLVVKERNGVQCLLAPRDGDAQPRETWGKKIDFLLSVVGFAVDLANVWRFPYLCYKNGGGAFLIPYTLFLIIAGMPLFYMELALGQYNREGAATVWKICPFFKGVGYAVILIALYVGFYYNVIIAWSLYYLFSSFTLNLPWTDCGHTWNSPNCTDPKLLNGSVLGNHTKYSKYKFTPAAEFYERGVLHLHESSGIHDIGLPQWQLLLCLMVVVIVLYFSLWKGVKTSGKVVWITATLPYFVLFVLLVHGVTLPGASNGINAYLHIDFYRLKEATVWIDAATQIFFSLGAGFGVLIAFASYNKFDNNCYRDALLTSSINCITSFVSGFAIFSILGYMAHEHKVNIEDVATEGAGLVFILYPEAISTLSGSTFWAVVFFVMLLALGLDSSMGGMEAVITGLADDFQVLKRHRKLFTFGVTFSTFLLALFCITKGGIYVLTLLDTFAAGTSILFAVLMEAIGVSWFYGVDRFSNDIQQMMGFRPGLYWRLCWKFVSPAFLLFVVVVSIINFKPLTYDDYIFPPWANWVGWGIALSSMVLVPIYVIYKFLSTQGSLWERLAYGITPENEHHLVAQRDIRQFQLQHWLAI

CADMIUM DICHLORIDE
Not Active: IC50 [1] | Ki [1] | IC50 [2] | Ki [2] | IC50 [3] | Ki [3] | IC50 [4] | Ki [4] | IC50 [5] | Ki [5] | IC50 [6] | Ki [6] | IC50 [7] | Ki [7] | IC50 [8] | Ki [8]
